{"source": "patent US11207271B2", "about": "“Mazindol IR/SR multilayer tablet and its use for the treatment of attention deficit/hyperactivity disorder (ADHD)” (NLS-1 Pharma AG, priority 2016, dated 2021)", "key": {"[1]": {"test": "Pharmacokinetics of immediate-release mazindol after oral administration", "format": "in vivo, human", "details": "immediate release formulation; from half-life", "description": "In U.S. Pat. No. 8,293,779, it is disclosed that, after single or repeated oral administration, mazindol is absorbed with a time to maximum concentrations (Tmax) of 2-4 hours.\nSuch immediate release compositions thus require twice daily administration, which limits compliance in the special case of children of school age, as the second administration is often requested to be done at midday, i.e. during school time. Even given the fact that the immediate release tablet undergoes complete in vitro dissolution within 1 hour, the time to maximum concentrations (Tmax) occurs at 3-4 hours after drug administration in healthy volunteers (Kim 2009). Rapid initial absorption will allow the earlier achievement of adequate systemic exposure to achieve desired efficacy (e.g., administer early and have onset of efficacy 1-2 hours later, when patient is at school or work)."}, "[2]": {"test": "In vitro TIM gastrointestinal system, fasted vs fed", "format": "in vitro ADME, human", "details": "formulated according to the invention", "description": "As discussed, this is particularly beneficial for ADHD patients, for this initial amount of mazindol provided increases patients' mental alertness and acuity at the start of their day (e.g., driving to work, starting school)."}, "[3]": {"details": "cited from earlier work"}, "[4]": {"details": "animal toxicology studies; cited from earlier work"}, "[5]": {"details": "cited from earlier work", "remark": "listed apart in the source"}, "[6]": {"details": "clinical pharmacokinetic studies; cited from earlier work"}}}
{"smiles": "OC1(c2ccc(Cl)cc2)c2ccccc2C2=NCCN21", "note": "(centres unmarked) [mazindol, 5-(4-chlorophenyl)-2,5-dihydro-3H-imadazo[2,1-a]isoindol-5-ol]", "values": [{"measurement": "time to reach steady-state concentrations", "setting": "[1]", "value": "30 to 55", "unit": "h"}, {"measurement": "Tmax in the fed state compared to the fasted state", "setting": "[2]", "value": "delayed, compared to the fasted state, by one hour or more"}, {"measurement": "dose dependence of pharmacokinetics", "setting": "[3]; doses between 1 mg/day and 4 mg/day, immediate-release formulations", "value": "linear (independent of the dose)"}, {"measurement": "time to maximum concentrations (Tmax)", "setting": "[3]; single or repeated oral administration, U.S. Pat. No. 8,293,779", "value": "2 to 4", "unit": "h"}, {"measurement": "carcinogenic effect", "setting": "[4]", "value": "no carcinogenic effect"}, {"measurement": "mutagenic effect", "setting": "[4]", "value": "no mutagenic effect"}, {"measurement": "toxic potential", "setting": "[4]", "value": "very low"}, {"measurement": "toxicology effect in reproduction", "setting": "[4]", "value": "no toxicology effect in reproduction"}, {"measurement": "hydrolytic stability", "setting": "[5]; moderate temperatures, water / neutral and alkaline aqueous solutions, human plasma", "value": "undergoes hydrolysis at moderate temperatures with minimal amount of water"}, {"measurement": "solubility as function of pH", "setting": "[5]; most soluble at stomach pH, least in the colon", "value": "decreases with increasing pH"}, {"measurement": "absorption in the colon", "setting": "[6]", "value": "not likely to be absorbed in the colon"}]}
